Experimental data as given in ChEMBL document CHEMBL4627246, “Pyroglutamide-Based P2X7 Receptor Antagonists Targeting Inflammatory Bowel Disease” (J Med Chem, 2020).

Key:
Type in all cases: cell-based
MDA-MB-231 = experiment: Cytotoxicity against human MDA-MB-231 cells assessed as effect on cell growth at 10 uM incubated for 48 hrs by sulforhodamine B assay; conditions: mda-mb-231, 48 h
DU-145 = experiment: Cytotoxicity against human DU145 cells assessed as effect on cell growth at 10 uM incubated for 48 hrs by sulforhodamine B assay; conditions: du-145, 48 h
RXF 393 = experiment: Cytotoxicity against human RXF393 cells assessed as effect on cell growth at 10 uM incubated for 48 hrs by sulforhodamine B assay; conditions: rxf 393, 48 h
SK-MEL-2 = experiment: Cytotoxicity against human SK-MEL-2 cells assessed as effect on cell growth at 10 uM incubated for 48 hrs by sulforhodamine B assay; conditions: sk-mel-2, 48 h
EKVX = experiment: Cytotoxicity against human EKVX cells assessed as effect on cell growth at 10 uM incubated for 48 hrs by sulforhodamine B assay
HL-60(TB) = experiment: Cytotoxicity against human HL-60(TB) cells assessed as effect on cell growth at 10 uM incubated for 48 hrs by sulforhodamine B assay
IGROV-1 = experiment: Cytotoxicity against human IGROV1 cells assessed as effect on cell growth at 10 uM incubated for 48 hrs by sulforhodamine B assay; conditions: igrov-1, 48 h
UACC-62 = experiment: Cytotoxicity against human UACC62 cells assessed as effect on cell growth at 10 uM incubated for 48 hrs by sulforhodamine B assay; conditions: uacc-62, 48 h
MCF7 = experiment: Cytotoxicity against human MCF7 cells assessed as effect on cell growth at 10 uM incubated for 48 hrs by sulforhodamine B assay; conditions: mcf7, 48 h
SNB-19 = experiment: Cytotoxicity against human SNB19 cells assessed as effect on cell growth at 10 uM incubated for 48 hrs by sulforhodamine B assay; conditions: snb-19, 48 h
HCC 2998 = experiment: Cytotoxicity against human HCC2998 cells assessed as effect on cell growth at 10 uM incubated for 48 hrs by sulforhodamine B assay; conditions: hcc 2998, 48 h
HCT-15 = experiment: Cytotoxicity against human HCT15 cells assessed as effect on cell growth at 10 uM incubated for 48 hrs by sulforhodamine B assay; conditions: hct-15, 48 h
SNB-75 = experiment: Cytotoxicity against human SNB75 cells assessed as effect on cell growth at 10 uM incubated for 48 hrs by sulforhodamine B assay; conditions: snb-75, 48 h
NCI-H522 = experiment: Cytotoxicity against human NCI-H522 cells assessed as effect on cell growth at 10 uM incubated for 48 hrs by sulforhodamine B assay; conditions: nci-h522, 48 h
OVCAR-5 = experiment: Cytotoxicity against human OVCAR5 cells assessed as effect on cell growth at 10 uM incubated for 48 hrs by sulforhodamine B assay; conditions: ovcar-5, 48 h
ACHN = experiment: Cytotoxicity against human ACHN cells assessed as effect on cell growth at 10 uM incubated for 48 hrs by sulforhodamine B assay
T47D = experiment: Cytotoxicity against human T47D cells assessed as effect on cell growth at 10 uM incubated for 48 hrs by sulforhodamine B assay
786-0 = experiment: Cytotoxicity against human 786-0 cells assessed as effect on cell growth at 10 uM incubated for 48 hrs by sulforhodamine B assay; conditions: 786-0, 48 h
SK-MEL-5 = experiment: Cytotoxicity against human SK-MEL-5 cells assessed as effect on cell growth at 10 uM incubated for 48 hrs by sulforhodamine B assay; conditions: sk-mel-5, 48 h
UO-31 = experiment: Cytotoxicity against human UO31 cells assessed as effect on cell growth at 10 uM incubated for 48 hrs by sulforhodamine B assay; conditions: uo-31, 48 h

Measured: Activity

O=C(NCc1ccc(Cl)cc1Cl)[C@@H]1CCC(=O)N1c1cccs1
Non-Toxic: MDA-MB-231 | DU-145 | RXF 393 | SK-MEL-2 | EKVX | HL-60(TB) | IGROV-1 | UACC-62 | MCF7 | SNB-19 | HCC 2998 | HCT-15 | SNB-75 | NCI-H522 | OVCAR-5 | ACHN | T47D | 786-0 | SK-MEL-5 | UO-31
